Where two headings read alike, the source gives them in different places.
Key:
histamine (H1) receptor = target: T1, histamine (H1) receptor (Cavia porcellus, UniProt P31389); test: Antihistamine (H1) effect: inhibition of histamine-induced contractions of isolated guinea-pig ileum in vitro; type: cell-based, guinea-pig (Dunkin Hartley); settings: histamine 5 × 10^-6 mol/l, test substance 10^-6 mol/l
T1 construct: isolated smooth muscle of the guinea-pig ileum; from tissue; host or cells: isolated ileum segments of Dunkin Hartley guinea-pigs
Procedure: 3. Investigation of the antihistamine (H1) effect based on histamine (H1) receptor antagonism in vitro.
To investigate the histamine (H1) receptor antagonism of the substances, the inhibitory effect thereof on histamine-induced contractions of the smooth musculature of isolated organ was determined in vitro. Isolated strips of organ from the ileum were used. In an organ bath of physiological saline solution, they react to addition of histamine by contracting. Addition of the compounds of the invention decreases this histamine-induced contraction of the smooth musculature of the ileum strips. The extent of decrease of the contraction is an indication of the antihistamine (H1) activity of the compounds. The investigation is carried out analogously to the method originally described by Magnus (Pflugers Arch. 102, 123 (1904)).
Experimental description of the determination of the inhibitory effect on the contraction induced by a 5×10^-6 molar histamine concentration on isolated smooth muscle of the guinea-pig ileum.
For the test, 1.5 cm long segments of the ileum from Dunkin Hartley guinea-pigs having a body weight of 300-500 g were employed. Each strip was placed in an organ bath of 10 ml of Krebs-Henseleit physiological saline solution and attached to a customary apparatus for isotonically measuring changes in length of the ileum strip (automated Celaster measuring apparatus) so that the tissue is under a tension of 1 g. The bath was kept at a pH of 7.4 and aerated with a mixture of 5% CO2 and 95% O2. After an equilibration phase, an isotonic contraction of the tissue was produced by adding histamine in a final concentration of 5×10^-6 mol/l and was washed out again after a contact time of 30 seconds. Only those tissues in which three reproducible contractions were obtained at 10 minute intervals were used in the subsequent test. The test substances were then added in a final concentration of 10^-6 mol/l, and after a contact time of 30 seconds histamine was again added up to a concentration of 5×10^-6 mol/l. The contractions which occurred were measured over the course of 30 seconds. The tissue was then washed several times over a period of 10 minutes. A contraction challenge was then induced again by addition of histamine. The contractions which occurred were again measured over 30 seconds. The difference between the amplitude of the contraction obtained by histamine addition alone and the amplitude of the contraction obtained in the presence of the test substance was determined and calculated as % inhibition.
The inhibitory effects on the contractions induced by histamine 30 seconds after administration of the test substance and on the contractions induced by addition of histamine 10 minutes afterward are given in the table.

[1] = test system: Histamine-induced anaphylactoid reactions; test: Inhibition of anaphylactoid cutaneous reaction induced by histamine; type: in vivo, rat (Sprague-Dawley); settings: Rattus norvegicus, 1 h; rats, 2 × 10^-5 mol/kg p.o., one hour before challenge; histamine intradermal
Procedure: (§1) 1. Determination of the inhibition of passive cutaneous anaphylaxis (P.C.A.) and of the anaphylactoid cutaneous reaction induced by histamine.
(§2) The determination of the inhibition of passive cutaneous anaphylaxis and the anaphylactoid cutaneous reaction induced by histamine was carried out as follows:
To determine the histamine-induced anaphylactoid skin reaction, the animals were injected intradermally in the flank opposite to the antiserum administration with 50 μl of a physiological saline solution containing 0.8 mg/ml of histamine directly before the i.v. injection of the solution containing the ovalbumin and the blue dye.
(§3) On the test days, the test substances were dissolved in distilled water which contained 1% by volume of dimethylformamide and 1% by volume of Tween®20 (polyoxyethylene(20) sorbitan monolaurate). One hour before the challenging ovalbumin administration, each animal received 2×10^-5 mol/kg of test substance administered orally in 0.5 ml of solution. A control group received only the solvent for comparison.
(§4) The oedematous anaphylactic (P.C.A.) and anaphylactoid (histamine-induced) reactions caused by the challenging i.v. ovalbumin injection, which are manifested by oedema formation, swelling and exudation of blue dye, were evaluated 30 minutes after challenge by the i.v. ovalbumin injection. This was done by visual determination of the extent to which the blue dye emerges at the sites of oedema formation. The percentage inhibition of anaphylactic and anaphylactoid reactions caused by the test substances was determined in comparison with the reactions of the control animals not treated with test substance with the aid of comparison scales.
(§5) The results obtained by the above test methods using compounds of the formula I are shown in the following Table A. The example numbers given for the compounds of formula I relate to the following preparation examples.

[2] = test system: Passive cutaneous anaphylaxis (P.C.A.); test: Inhibition of passive cutaneous anaphylaxis (P.C.A.); type: in vivo, rat (Sprague-Dawley); settings: Rattus norvegicus, 1 h; rats, 2 × 10^-5 mol/kg p.o., one hour before ovalbumin challenge
Procedure: as §1
The P.C.A. reaction was carried out according to the methods described by Goose et al. (J.N. Immunology 16 (1969), 749) and by Martin et al (Arch. Pharmacol. 316 (1981), 186}.
The IgE-rich ovalbumin antiserum used in the test was obtained from immunized Brown-Norway rats. For immunization, the rats were given an i.p. injection of a mixture of 100 μg of ovalbumin with a Bordetella pertussis suspension (Vaxicoq®, Manufacturer: Institut Merieux, containing 5×10^9 organisms and 1.25 mg of Al(OH)3). After 20 days, the animals received a further i.p. injection of a solution of 10 μg of ovaIbumin in 0.5 ml of physiological saline solution for reimmunisation. After a further four days, the animals were bled, and the blood was centrifuged The antiserum obtained in this way was stored at -20° C. until use.
as §2
Sprague-Dawley rats having a body weight of 150-180 g were injected intradermally in one flank with 50 μl of a 1:75 dilution of the IgE-rich ovalbumin antiserum in physiological sodium chloride solution for passive sensitization to ovalbumin.
24 hours after sensitization a solution of 8.25 mg/kg of ovalbumin and 26.4 mg/kg of a blue dye (Evans' Blue) was administered i.v. to the rats according to Martin et al. to induce passive cutaneous anaphylaxis. The ovalbumin challenge caused a local anaphylactic reaction at the site at which the antiserum had been injected.
as §3, §4, §5

[3] = test system: P.A.F.-induced aggregation of platelets from rabbit blood; test: Anti-P.A.F. effect in vitro: inhibition of P.A.F.-induced platelet aggregation; type: cell-based, rabbit (New Zealand hybrids); settings: test substance concentration 10^-5 mol/l; for inhibition at 10 µM: Oryctolagus cuniculus, Platelet
Source text: 4. Determination of anti-P.A.F. effect in vitro.
Platelet-activating factor (P.A.F.) is a phospholipid mediator which has several effects. The activation of platelet aggregation leads to the induction of protracted broncho contractions and hyperreactivity of the airways.
The effects of the test substances on platelet aggregation induced by adding P.A.F. to a platelet suspension obtained from rabbit blood was investigated by the method described by Mikashima et al. (Jap. J. Pharmacol. 44 (1987) 387-391).
A suspension of platelets originating from rabbit blood was used which contained 4×10^9 platelets/ml in a modified Tyrode buffer solution adjusted to pH 7.4. Tyrode solution is an aqueous solution containing 136.9 mmol of NaCl, 2.68 mmol of KCl, 2.31 mmol of CaCl2, 1.0 mmol of MgCl2, 11.9 mmol of NaHCO3, 1.45 mmol of NaH2 PO4 and 5.55 mmol of glucose per liter. This solution was modified by adding 1.3 mM/l of CaCl2 and 2.5 g/l of gelatin. The platelets were obtained from 10 ml blood samples from each of three rabbits (New Zealand hybrids, body weight 3-4 kg). For this, the blood samples were treated with ethylenediaminetetraacetic acid and washed by the method of Artley et al. (Brit. J. Hamatol. 19 (1970), 7-17). A platelet-rich plasma was then initially separated by centrifugation (20 minutes at 400×g). The platelets were separated from the plasma by centrifuging again for 15 minutes at 1400×g. After centrifuging, the platelets remaining as a sediment were resuspended in a calcium-free Tyrode buffer solution. 0.4 mmol of lysine acetylsalicylate were then added and after 15 minutes the blood platelets were sedimented again. The sediment was resuspended in the abovementioned modified Tyrode buffer solution, and the number of platelets in the resulting suspension was adjusted to the desired content.
A 40×10^-9 molar P.A.F. solution was used as the reagent. This solution was prepared from a 1.8×10^-3 molar stock solution in chloroform. For this, a 10μl sample of the stock solution was evaporated to dryness and redissolved in 180 μl of the modified Tyrode solution, to which 0.25% of dilapidated bovine serum albumin had been added. 10^-5 molar working solutions were then prepared from this and stored frozen. Samples of these solutions were appropriately diluted for the tests.
To carry out the tests, 50 μl of the platelet solution and 10 μl of a 40×10^-5 molar solution of the compound to be investigated were added to 330 μl of the modified Tyrode buffer solution with stirring (1000 rpm) in an aggregation tube provided with a small magnetic stirrer. This corresponds to a final test substance concentration of 10^-5 mol/l. After a preincubation time of 90seconds, 10 μl of the P.A.F. preparation were added. The aggregation occurring in the aggregation tubes was measured for 4-5 minutes using a computerized aggregometer.
The aggregation occurring in the test tubes containing only platelet suspension was rated as 0%. The aggregation occurring in test tubes containing platelet suspension and P.A.F. preparation was rated as 100%. The aggregation which still occurred in the presence of the test substances (i.e. during inhibition of the P.A.F.-induced platelet aggregation increase) was measured, and the resulting aggregation inhibition is calculated from this in %.

[4] = after 30 sec., read-out: in vitro (H1) receptor antagonism % inhibitory effect on histamine-induced contractions of the Ileum, after 30 sec.
[5] = after 10 min. (after washing), read-out: in vitro (H1) receptor antagonism % inhibitory effect on histamine-induced contractions of the Ileum, after 10 min.

T1 sequence (P31389 whole entry): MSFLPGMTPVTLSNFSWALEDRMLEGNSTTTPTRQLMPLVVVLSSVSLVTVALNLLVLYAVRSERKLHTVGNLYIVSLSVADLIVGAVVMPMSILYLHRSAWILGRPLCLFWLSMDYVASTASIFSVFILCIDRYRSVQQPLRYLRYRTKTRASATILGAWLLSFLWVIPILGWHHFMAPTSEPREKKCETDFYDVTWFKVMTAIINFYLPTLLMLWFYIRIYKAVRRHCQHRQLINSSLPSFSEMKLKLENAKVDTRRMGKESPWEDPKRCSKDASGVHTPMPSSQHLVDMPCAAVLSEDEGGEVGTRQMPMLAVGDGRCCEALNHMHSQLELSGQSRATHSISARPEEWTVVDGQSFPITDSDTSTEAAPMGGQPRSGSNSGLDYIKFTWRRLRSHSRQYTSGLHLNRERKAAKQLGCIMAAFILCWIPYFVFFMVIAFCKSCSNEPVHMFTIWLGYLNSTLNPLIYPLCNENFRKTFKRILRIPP

inhibition at 1 µM (histamine (H1) receptor; [4]) [%]	inhibition at 1 µM (histamine (H1) receptor; [5]) [%]	SMILES	inhibition in vivo at 20 µmol/kg [1] [%]	inhibition in vivo at 20 µmol/kg [2] [%]	inhibition at 10 µM [3] [%]	further results
25	24	Cc1ccnc(N2CCN(CCc3c(C)n4c5c(cccc35)[S+]([O-])CC4)CC2)c1 (centres unmarked) [Example 28a, 2,3-Dihydro-5-methyl-6-{2-[4-(4-methylpyridin-2-yl)-piperazin-1-yl]ethyl}-pyrrolo[1,2,3-de]-1,4-benzothiazine-1-oxide]	90	100	–	–
31	89	Cc1ccnc(N2CCN(CCc3c(C)n4c5c(cccc35)CCCC4)CC2)c1 [Example 31, 4,5,6,7-tetrahydro-2-methyl-1-{2-[4-(4-methylpyridin-2-yl)piperazin-1-yl]ethyl}-pyrrolo[3,2,1-jk]benzazepine]	–	–	95	–
12	92	CSc1cc2c3c(c1)c(CCN1CCN(c4cc(C)ccn4)CC1)c(C)n3CCS2 [Example 78]	–	–	98	–
–	–	Cc1ccnc(N2CCN(CCCc3c(C)n4c5c(cccc35)CCC4)CC2)c1 [Example 17, 5,6-dihydro-2-methyl-1-{3-[4-(4-methylpyridin-2-yl)piperazin-1-yl]-propyl}-4H-pyrrolo[3,2,1-ij]quinoline]	25	45	–	–
–	–	Cc1ccnc(N2CCN(CCc3c(Cc4ccccc4)n4c5c(cccc35)CCC4)CC2)c1 [Example 32, 2-Benzyl-5,6-dihydro-1-{2-[4-(4-methylpyridin-2-yl)-piperazin-1-yl]ethyl}-4H-pyrrolo[3,2,1-ij]quinoline]	–	–	100	–
6	14	Cc1ccnc(N2CCN(CCc3c(C)n4c5c(cccc35)S(=O)(=O)CC4)CC2)c1 [Example 28b, 2,3-dihydro-5-methyl-6-{2-[4-(4-methylpyridin-2-yl)-piperazin-1yl]ethyl}-pyrrolo[1,2,3-de]-1,4-benzothiazine-1,1-dioxide]	85	100	–	–
–	–	Cc1ccnc(N2CCN(CCc3c(-c4ccc(O)cc4)n4c5c(cccc35)CCC4)CC2)c1 [Example 97]	–	–	–	% inhibition of the P.A.F.-induced aggregation of platelets from rabbit blood [3]: 99%
10	71	Cc1ccc(N2CCN(CCc3c(C)n4c5c(cc(C(=O)C(C)C)cc35)CCC4)CC2)nc1 [Example 95]	–	–	–	–
29	72	Cc1ccnc(N2CCN(CCc3c(C)n4c5c(cccc35)CCC4CO)CC2)c1 (centres unmarked) [Example 18, 5,6-Dihydro-4-hydroxymethyl-2-methyl-1-{2-[4-(4-methylpyridin-2-yl)piperazin-1-yl]ethyl}-4H-pyrrolo[3,2,1-ij]-quinoline]	80	90	–	–
–	–	Cc1ccc(-c2c(CCN3CCN(c4cc(C)ccn4)CC3)c3cccc4c3n2CCC4)cc1 [Example 86]	–	–	100	–
–	–	CNc1cc2c3c(c1)c(CCN1CCN(c4cc(C)ccn4)CC1)c(C)n3CCC2 [Example 29, 5,6-Dihydro-2-methyl-8-methylamino-1-{2-[4-(4-methylpyridin-2-yl)piperazin-1-yl]ethyl}-4H-pyrrolo[3,2,1-ij]quinoline]	–	–	–	in vitro (H1) receptor antagonism % inhibitory effect on histamine-induced contractions of the Ileum, after 30 sec. (histamine (H1) receptor; after 30 sec.): 7%; in vitro (H1) receptor antagonism % inhibitory effect on histamine-induced contractions of the Ileum, after 10 min. (histamine (H1) receptor; after 10 min. (after washing)): 30%
–	–	COc1ccc(-c2c(CCN3CCN(c4cc(C)ccn4)CC3)c3cccc4c3n2CCC4)cc1 [Example 96]	–	–	–	% inhibition of the P.A.F.-induced aggregation of platelets from rabbit blood [3]: 98%
24	50	Cc1cccc(N2CCN(CCc3c(C)n4c5c(cccc35)CCC4)CC2)n1 [Example 50]	50	60	–	–
